Results taken from ChEMBL document CHEMBL1127186, “Probing a catalytic antibody active site using spin-labelled haptens” (Bioorg Med Chem Lett, 1993).

Experiments:
[1] = Kinetic parameter of antibody 48G7 in 10 mM Tris HCl, 50 mM NaCl, pH 8.27
[2] = Compound was evaluated for the inhibition of antibody (Antibody 48G7) catalyzed reaction
[3] = Dissociation constant from ESR titration experiments; format: physicochemical

Km [1] | k cat [1] | SMILES | Ki [2] | Kd [3]
360 µM | 0.437 s⁻¹ | COC(=O)CCCOC(=O)Oc1ccc([N+](=O)[O-])cc1 |  | 
430 µM | 0.123 s⁻¹ | COC(=O)Oc1ccc([N+](=O)[O-])cc1 |  | 
 | 0.0633 s⁻¹ | CC(=O)Oc1ccc([N+](=O)[O-])cc1 |  | 

The next lines start with the compound.

SMILES | Km [1] | k cat [1] | Ki [2] | Kd [3]
Cc1cccc(P(=O)(O)O)c1[N+](=O)[O-] [METHYLNITROPHENYLPHOSPHONATE] |  |  | 0.56 µM | 
CC1(C)CC(OP(=O)(O)Oc2ccc([N+](=O)[O-])cc2)CC(C)(C)N1[O] |  |  |  | 4.3 µM
COC(=O)CCCC(=O)Oc1ccc([N+](=O)[O-])cc1 | 300 µM | 0.367 s⁻¹ |  | 
CC1(C)CC(OP(=O)(O)Oc2ccc([N+](=O)[O-])cc2)C(C)(C)N1[O] (stereo not given) |  |  |  | 6.4 µM
